Numbered stars: 1 amine (or outer) side, 2 acyl side, 3 side chain; on linkers, the order of the positions; unused ones are H or OH. Bridge positions count the residues as written; N and C are the ends. Square brackets hold non-standard residues; d marks the D form. Side chains are listed from the residue outwards. Peptide text beside a SMILES is read from it. * marks the point of attachment. γGlu = O=C(O)[C@H](CCC(=O)[*:2])N[*:1]; Palmitoyl = CCCCCCCCCCCCCCCC(=O)*; Aib = CC(C)(N)C(=O)O

In one assay the target is T1, human glucagon receptor (Homo sapiens, UniProt P47871).
T1 construct: expressed in transfected cells; host or cells: HEK293
Briefly: cAMP formation in HEK293 cells expressing the human glucagon receptor. The class given is cell-based. The settings on record: 15 min at 37° C., read-out: EC50 (nM) GuR. The source says: (§1) Similarly, activation of the GLP-1 receptor by a GLP-1 agonist will stimulate cellular cAMP formation. Thus, production of cAMP in suitable cells expressing one of these two receptors can be used to monitor the relevant receptor activity.
(§2) The skilled person will be aware of suitable assay formats, and examples are provided below. […] (Where sequences of precursor proteins are referred to, it should of course be understood that assays may make use of the mature protein, lacking the signal sequence).
(§3) On the day of analysis, growth medium was removed and the cells washed once with 200 μl Tyrode buffer. Cells were incubated in […] containing increasing concentrations of test peptides, 100 μM IBMX, and 6 mM glucose for 15 min at 37° C. The reaction was stopped by addition of 25 μl 0.5 M HCl and incubated on ice for 60 min. The cAMP content was estimated using the FlashPlate® cAMP kit from Perkin-Elmer. EC50 values were estimated by computer aided curve fitting.
(In general: cAMP levels reflect the balance of adenylyl cyclase and phosphodiesterase activity.)

The next assay addresses T2, human GLP-1R (Homo sapiens, UniProt P43220).
T2 construct: expressed in transfected cells; host or cells: HEK293
Briefly: cAMP formation in HEK293 cells expressing human GLP-1R. The class given is cell-based. The settings on record: 15 min at 37° C.
Text: as §1, §2, §3

T2 sequence (P43220 24-463): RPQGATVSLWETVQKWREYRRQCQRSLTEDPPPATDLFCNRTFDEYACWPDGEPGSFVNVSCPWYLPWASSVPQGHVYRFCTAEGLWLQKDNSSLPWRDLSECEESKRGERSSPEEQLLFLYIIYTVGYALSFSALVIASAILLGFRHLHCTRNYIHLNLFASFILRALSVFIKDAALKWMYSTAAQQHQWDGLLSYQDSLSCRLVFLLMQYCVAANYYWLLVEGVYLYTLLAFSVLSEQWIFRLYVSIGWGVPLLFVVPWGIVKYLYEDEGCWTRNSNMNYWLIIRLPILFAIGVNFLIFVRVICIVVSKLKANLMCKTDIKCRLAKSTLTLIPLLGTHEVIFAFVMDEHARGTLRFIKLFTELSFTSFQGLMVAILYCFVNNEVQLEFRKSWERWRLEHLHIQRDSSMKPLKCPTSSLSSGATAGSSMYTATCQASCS
T1 sequence (P47871 26-477): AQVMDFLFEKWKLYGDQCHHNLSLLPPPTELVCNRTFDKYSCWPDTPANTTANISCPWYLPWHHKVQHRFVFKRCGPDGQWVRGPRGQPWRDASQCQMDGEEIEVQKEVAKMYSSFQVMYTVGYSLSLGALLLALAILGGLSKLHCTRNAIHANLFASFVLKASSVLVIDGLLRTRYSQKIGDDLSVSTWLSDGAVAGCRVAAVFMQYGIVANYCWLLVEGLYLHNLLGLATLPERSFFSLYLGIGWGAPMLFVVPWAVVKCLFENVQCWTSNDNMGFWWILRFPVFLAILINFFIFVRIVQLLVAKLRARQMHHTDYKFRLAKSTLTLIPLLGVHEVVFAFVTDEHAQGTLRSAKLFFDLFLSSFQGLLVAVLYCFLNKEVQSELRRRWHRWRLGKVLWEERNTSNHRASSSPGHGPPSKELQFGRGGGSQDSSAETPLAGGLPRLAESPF

For `CCCCCCCCCCCCCCCC(=O)N[C@@H](CCC(=O)NCCCC[C@H](NC(=O)[C@H](CO)NC(=O)[C@H](CC(=O)O)NC(=O)[C@H](CC(C)C)NC(=O)[C@H](Cc1ccc(O)cc1)NC(=O)[C@H](CCCCN)NC(=O)[C@H](CO)NC(=O)[C@H](Cc1ccc(O)cc1)NC(=O)[C@H](CC(=O)O)NC(=O)[C@H](CO)NC(=O)[C@@H](NC(=O)[C@H](Cc1ccccc1)NC(=O)[C@@H](NC(=O)CNC(=O)[C@H](CCC(N)=O)NC(=O)C(C)(C)NC(=O)[C@@H](N)Cc1c[nH]cn1)[C@@H](C)O)[C@@H](C)O)C(=O)N[C@@H](C)C(=O)N[C@@H](C)C(=O)N[C@@H](Cc1c[nH]cn1)C(=O)N[C@@H](CC(=O)O)C(=O)N[C@@H](Cc1ccccc1)C(=O)N[C@H](C(=O)N[C@@H](CCC(=O)O)C(=O)N[C@@H](Cc1c[nH]c2ccccc12)C(=O)N[C@@H](CC(C)C)C(=O)N[C@@H](CC(C)C)C(=O)N[C@@H](CO)C(=O)N[C@@H](C)C(N)=O)C(C)C)C(=O)O` [Compound 208], the results for the EC50 at human glucagon receptor and at human GLP-1R were 0.16 nM and 0.11 nM, respectively.

In the case of `CC(C)C[C@H](NC(=O)[C@H](Cc1ccc(O)cc1)NC(=O)[C@H](CCCCN)NC(=O)[C@H](CO)NC(=O)[C@H](Cc1ccc(O)cc1)NC(=O)[C@H](CC(=O)O)NC(=O)[C@H](CO)NC(=O)[C@@H](NC(=O)[C@H](Cc1ccccc1)NC(=O)[C@@H](NC(=O)CNC(=O)[C@H](CCC(N)=O)NC(=O)[C@H](CO)NC(=O)[C@@H](N)Cc1c[nH]cn1)[C@@H](C)O)[C@@H](C)O)C(=O)N[C@@H](CC(=O)O)C(=O)N[C@@H](CO)C(=O)N[C@@H](CCCNC(=N)N)C(=O)N[C@@H](CCCNC(=N)N)C(=O)N[C@@H](C)C(=O)N[C@@H](CCC(N)=O)C(=O)N[C@@H](CC(=O)O)C(=O)N[C@@H](Cc1ccccc1)C(=O)N[C@H](C(=O)N[C@@H](Cc1c[nH]c2ccccc12)C(=O)N[C@@H](CC(C)C)C(=O)N[C@@H](CCC(=O)O)C(=O)N[C@@H](CO)C(=O)N[C@@H](C)C(N)=O)C(C)C` [Compound 248], the values for the concentration for a half-maximal effect (EC50) on human glucagon receptor and on human GLP-1R were 0.1 nM and 0.5 nM, respectively.

As for `CC(C)C[C@H](NC(=O)[C@H](Cc1ccc(O)cc1)NC(=O)[C@H](CCCCN)NC(=O)[C@H](CO)NC(=O)[C@H](Cc1ccc(O)cc1)NC(=O)[C@H](CC(=O)O)NC(=O)[C@H](CO)NC(=O)[C@@H](NC(=O)[C@H](Cc1ccccc1)NC(=O)[C@@H](NC(=O)CNC(=O)[C@H](CCC(N)=O)NC(=O)[C@H](CO)NC(=O)[C@@H](N)Cc1c[nH]cn1)[C@@H](C)O)[C@@H](C)O)C(=O)N[C@@H](CC(=O)O)C(=O)N[C@@H](CO)C(=O)N[C@@H](CCCNC(=N)N)C(=O)N[C@@H](CCCNC(=N)N)C(=O)N[C@@H](C)C(=O)N[C@@H](CCC(N)=O)C(=O)N[C@@H](CC(=O)O)C(=O)N[C@@H](Cc1ccccc1)C(=O)N[C@H](C(=O)N[C@@H](Cc1c[nH]c2ccccc12)C(=O)N[C@@H](CC(C)C)C(=O)N[C@@H](CCCCN)C(=O)N[C@@H](CO)C(=O)N[C@@H](C)C(N)=O)C(C)C` [Compound 249], the concentration for a half-maximal effect (EC50) on human glucagon receptor and on human GLP-1R was 0.1 nM each time.

Consider `CC(C)C[C@H](NC(=O)[C@H](Cc1ccc(O)cc1)NC(=O)[C@H](CCCCN)NC(=O)[C@H](CO)NC(=O)[C@H](Cc1ccc(O)cc1)NC(=O)[C@H](CC(=O)O)NC(=O)[C@H](CO)NC(=O)[C@@H](NC(=O)[C@H](Cc1ccccc1)NC(=O)[C@@H](NC(=O)CNC(=O)[C@H](CCC(N)=O)NC(=O)[C@H](CO)NC(=O)[C@@H](N)Cc1c[nH]cn1)[C@@H](C)O)[C@@H](C)O)C(=O)N[C@@H](CC(=O)O)C(=O)N[C@@H](CO)C(=O)N[C@@H](CCCNC(=N)N)C(=O)N[C@@H](CCCNC(=N)N)C(=O)N[C@@H](C)C(=O)N[C@@H](CCC(N)=O)C(=O)N[C@@H](CC(=O)O)C(=O)N[C@@H](Cc1ccccc1)C(=O)N[C@H](C(=O)N[C@@H](Cc1c[nH]c2ccccc12)C(=O)N[C@@H](CC(C)C)C(=O)N[C@@H](CCCCN)C(=O)N[C@@H](CCCNC(=N)N)C(=O)N[C@@H](C)C(N)=O)C(C)C` [Compound 250], for which the concentration for a half-maximal effect (EC50) was 0.1 nM on human glucagon receptor and 0.3 nM on human GLP-1R.

Regarding `CC(C)C[C@H](NC(=O)[C@H](Cc1ccc(O)cc1)NC(=O)[C@H](CCCCN)NC(=O)[C@H](CO)NC(=O)[C@H](Cc1ccc(O)cc1)NC(=O)[C@H](CC(=O)O)NC(=O)[C@H](CO)NC(=O)[C@@H](NC(=O)[C@H](Cc1ccccc1)NC(=O)[C@@H](NC(=O)CNC(=O)[C@H](CCC(N)=O)NC(=O)[C@H](CO)NC(=O)[C@@H](N)Cc1c[nH]cn1)[C@@H](C)O)[C@@H](C)O)C(=O)N[C@@H](CC(=O)O)C(=O)N[C@@H](CO)C(=O)N[C@@H](CCCNC(=N)N)C(=O)N[C@@H](CCCNC(=N)N)C(=O)N[C@@H](C)C(=O)N[C@@H](CCC(N)=O)C(=O)N[C@@H](CC(=O)O)C(=O)N[C@@H](Cc1ccccc1)C(=O)N[C@H](C(=O)N[C@@H](Cc1c[nH]c2ccccc12)C(=O)N[C@@H](CC(C)C)C(=O)N[C@@H](CCC(=O)O)C(=O)N[C@@H](CCCNC(=N)N)C(=O)N[C@@H](C)C(N)=O)C(C)C` [Compound 251], the EC50 at human glucagon receptor was found to be 0.1 nM; on human GLP-1R it was 0.2 nM.

Regarding `CC(C)C[C@@H]1NC(=O)[C@H](CC(C)C)NC(=O)[C@H](Cc2c[nH]c3ccccc23)NC(=O)[C@@H](NC(=O)[C@@H](NC(=O)[C@H](Cc2ccccc2)NC(=O)[C@H](CC(=O)O)NC(=O)[C@H](Cc2c[nH]cn2)NC(=O)[C@H](C)NC(=O)[C@H](C)NC(=O)[C@H](CCCCN)NC(=O)[C@H](CO)NC(=O)[C@H](CC(=O)O)NC(=O)[C@H](CC(C)C)NC(=O)[C@H](Cc2ccc(O)cc2)NC(=O)[C@H](CCCCN)NC(=O)[C@H](CO)NC(=O)[C@H](Cc2ccc(O)cc2)NC(=O)[C@H](CC(=O)O)NC(=O)[C@H](CO)NC(=O)[C@@H](NC(=O)[C@H](Cc2ccccc2)NC(=O)[C@@H](NC(=O)CNC(=O)[C@H](CCC(N)=O)NC(=O)[C@H](CO)NC(=O)[C@@H](N)Cc2c[nH]cn2)[C@@H](C)O)[C@@H](C)O)C(C)C)CCC(=O)NCCCC[C@@H](C(=O)N[C@@H](C)C(N)=O)NC1=O` [Compound 261] (H-HSQGTFTSDYSKYLDSKAAHDFVEWLLKA-NH2; lactam 24-28), the EC50 on human glucagon receptor is 0.07 nM; at human GLP-1R it was 0.03 nM.

As for `CCCCCCCCCCCCCCCC(=O)N[C@@H](CCC(=O)NCCCC[C@H](NC(=O)[C@H](CCC(=O)O)NC(=O)[C@H](CC(=O)O)NC(=O)[C@H](CC(C)C)NC(=O)[C@H](Cc1ccc(O)cc1)NC(=O)[C@H](CCCCN)NC(=O)[C@H](CO)NC(=O)[C@H](Cc1ccc(O)cc1)NC(=O)[C@H](CC(=O)O)NC(=O)[C@H](CO)NC(=O)[C@@H](NC(=O)[C@H](Cc1ccccc1)NC(=O)[C@@H](NC(=O)CNC(=O)[C@H](CCC(N)=O)NC(=O)C(C)(C)NC(=O)[C@@H](N)Cc1c[nH]cn1)[C@@H](C)O)[C@@H](C)O)C(=O)N[C@@H](CCCNC(=N)N)C(=O)N[C@@H](C)C(=O)N[C@@H](CCCCN)C(=O)N[C@@H](CC(=O)O)C(=O)N[C@@H](Cc1ccccc1)C(=O)N[C@H](C(=O)N[C@@H](CCC(=O)O)C(=O)N[C@@H](Cc1c[nH]c2ccccc12)C(=O)N[C@@H](CC(C)C)C(=O)N[C@@H](CC(C)C)C(=O)N[C@@H](CO)C(=O)N[C@@H](C)C(N)=O)[C@@H](C)CC)C(=O)O` [Compound 263] (H-H[Aib]QGTFTSDYSKYLDEK([γGlu-Palmitoyl])RAKDFIEWLLSA-NH2), the half-maximal effective concentration (EC50) at human glucagon receptor is 0.16 nM; at human GLP-1R, 0.1 nM.

Turning to “H-HSQGTFTSDYSKYLDKRRAEDFVWLMNT-NH2 [Compound 256]”, the 50% effective concentration (EC50) worked out at 0.07 nM on human glucagon receptor and 0.2 nM on human GLP-1R.

For “H-HSQGTFTSDYSKYLDSALAQDFVWLLNT-NH2 [Compound 255]”, the half-maximal effective concentration (EC50) on human glucagon receptor is 0.1 nM; at human GLP-1R it was 0.24 nM.

As for “H-HSQGTFTSDYSKYLDSRAAQDFVWLMNT-NH2 [Compound 246]”, the figures for the EC50 on human glucagon receptor and at human GLP-1R were 0.05 nM and 0.3 nM, respectively.

For orientation: EC50 means the concentration that produces a half-maximal response.
